One molecule from patent US9290452B2, “Multicomponent crystalline system comprising deferasirox and isonicotinamide and a process for the preparation thereof” (BASF SE, priority 2012, dated 2016) can be followed below.

The nature of data set [1]: Aqueous solubility determination (suspension equilibration for three days, HPLC). Particulars: pure water, 25±2° C. (ambient temperature), about three days of suspension equilibration, filtered solution. It counts as physicochemical. How it is done: The aqueous solubility of Deferasirox free drug substance and the multicomponent crystalline system of the present invention (Deferasirox-Isonicotinamide co-crystal) was determined in water at ambient temperature after about three days of suspension equilibration using HPLC for the determination of the concentration in the filtered solution.
Solubility determinations were carried out in pure water at 25±2° C. Suspensions with about 50 mg the solid form, either the co-crystal of the present invention or deferasirox free drug substance in 7 mL water were prepared an equilibrated for three days before the solution phase was filtered off and tested by HPLC.
HPLC was carried out on an Agilent 1100 HPLC chromatograph equipped with a UV-vis detection unit. The column type used was a Waters XTerra MS C18, 100×4.6 mm, 5 μm (FK-CC01F). […]
882 mg of Deferasirox and 290 mg of isonicotinamide are dissolved in a mixture of 15 ml acetone and 3 ml THF by shortly heating to reflux temperature. […] Then suspension is filtered and the concentration in the solution determined by HPLC. […]

Data set [2] is described as follows: Dynamic water vapor adsorption measurements (DVS). It counts as physicochemical. Particulars: water vapor sorption. The source says: It is known that the anhydrous form A of Deferasirox converts to a hydrate form upon exposure to high relative humidity, therefore anhydrous Deferasirox is hygroscopic. The multicomponent crystalline system described here is characterized in that it has good hygroscopic properties, i.e. absorb little water at high relative humidity. This is evident from table 1 below, which compares the water contents of the multicomponent crystalline system and Deferasirox free drug substance at 50% and 95% relative humidity. The data originate from dynamic water vapor adsorption measurements. The water vapor sorption measurement is a suitable method for investigating the hygroscopic properties of solid substances. Water vapor sorption measurements can be carried out in different ways. In general, in this connection, a small sample of ca. 10-30 mg is introduced into a microbalance in a suitable sample carrier. The sample is then exposed to different relative humidities in accordance with a defined program, the change in the sample mass being simultaneously recorded over the time. […]
Dynamic water vapor adsorption measurements were carried out using an SPS11 100 n instrument, manufactured by “Projekt Messtechnik” in Ulm, Germany. […] The sample was then subjected to preselected relative humidities in accordance with a defined program, the change in mass being determined over the time. […]

By thermodynamic solubility is commonly meant the concentration in solution at equilibrium with solid. `O=C(O)c1ccc(-n2nc(-c3ccccc3O)nc2-c2ccccc2O)cc1` [Deferasirox free drug substance, 4-[3,5-bis(2-hydroxyphenyl)-1H-1,2,4-triazol-1-yl]benzoic acid] registered a solubility (thermodynamic) at 3 days in data set [1] of less than 1 µg/mL. In data set [2] (50% relative humidity), the “H2O content at 50% r.h.” value stood at 0.5%. In addition, the “H2O content at 95% r.h.” value in data set [2] (95% relative humidity) is recorded as 3.6%.
